Data reported in US9676758B2, “1-heteroaryl-indoline-4-carboxamides as modulators of GPR52 useful for the treatment or prevention of disorders related thereto” (Arena Pharmaceuticals, Inc., priority 2015, dated 2017).

Columns and labels:
male Sprague-Dawley rats [1] = experiment: Prepulse inhibition of the startle response in rats; type: in vivo, rat; conditions: 5 or 20 mg/kg P.O., FIGS. 26A-B
Method: Prepulse inhibition testing was conducted in enclosed startle chambers (Kinder Scientific StartleMonitor System, Kinder Scientific, Poway, Calif.) in which animals were placed into restrainers secured onto startle-sensing plates. A constant background white noise of 65 dB was audible in the chambers throughout testing. […]
For each animal, mean startle amplitude for each trial type during the 35-trial block was calculated, and percent prepulse inhibition (% PPI) for each prepulse intensity was calculated as the percent decrease in the mean startle amplitude in response to a given prepulse and 120 dB startle stimulus relative to the mean startle amplitude in response to the 120 dB startle stimulus alone. The % PPI was then calculated for each animal as the mean % PPI across all four prepulse intensities. […]

[2] = Brain penetration (plasma and brain exposure); type: in vivo, mouse; conditions: PO dose 3 mg/kg; male C57BL6 mice; 60 minute time point
Method: Plasma and brain exposure were evaluated to determine the brain penetration of compounds described herein. Male C57BL6 mice were administered a single per oral (PO) dose of compound at 3 or 10 mg/kg (as a free base) formulated in 20% HPCD in 0.9% NaCl. Blood and brain samples were collected 60 minutes post-dose (n=3-6 animals). Blood was collected via cardiac puncture and stored on ice prior to the separation of plasma by centrifugation. Brains were extracted from the cranium and frozen on dry ice. Tissue samples were stored at approximately −80° C. prior to bioanalytical analysis.
Analyte plasma and brain concentrations were determined by LC/MS/MS.

male Sprague-Dawley rats [3] = experiment: Catalepsy (vertical grid) in rats; type: in vivo, rat; conditions: Compound 13 5-100 mg/kg P.O., haloperidol 0.1, 0.3, or 1 mg/kg S.C., 45 minutes post-dose
Method: Catalepsy is used as a model for detecting extrapyramidal side effects of antipsychotic drugs. […] The rats were removed from home cages 45 minutes later and placed on a vertical stainless steel grid, and the latency to move both forepaws from their starting position was measured for a maximum of 30 seconds. The test was repeated three times consecutively.
Catalepsy is expressed as the average latency to move both forepaws over the three trials. Latency increased in the rats administered haloperidol (see FIG. 27B), but was unchanged in rats administered Compound 13 (see FIG. 27A).

male Sprague-Dawley rats [4] = experiment: Rat basal locomotor activity; conditions: 0.5, 1, 2, 5, 10, and 20 mg/kg P.O.
Method: Locomotor activity was assessed in a photocell monitoring caging system (Kinder Scientific MotorMonitor System, Kinder Scientific, Poway, Calif.). Each cage consisted of a standard plastic rodent cage (24×45.5 cm) placed inside a stainless steel frame. Infrared photocell beams were located across the long axis of the frame. Interruption of a photocell beam due to movement of the animal in front of a beam was recorded and used as a measure of ambulatory activity. Photocell beam interruptions were automatically recorded by a computer system. Perforated cage tops were placed on top of the test enclosures during testing.
Activity was then measured for the following 30 minutes. Animals were naïve to the testing apparatus prior to performing the test. Activity is expressed as the total number of ambulations over the 30 minutes of locomotor testing (i.e., 30-60 minutes post-injection).

Question: With `O=C(NCCO)c1cccc2c1CCN2c1cc(Cc2cccc(C(F)(F)F)c2)ccn1` [Compound 13, N-(2-Hydroxyethyl)-1-(4-(3-(trifluoromethyl)benzyl)pyridin-2-yl)indoline-4-carboxamide] as the compound, how does the “MK-801-induced disruption in % PPI in 'good performers'” value (male Sprague-Dawley rats [1]; MK-801 0.3 mg/kg SC) read?
Answer: The value was “reversed”.

Question: And the “amphetamine-induced disruption in % PPI in 'good performers'” value (male Sprague-Dawley rats [1]; amphetamine 0.5 mg/kg SC)?
Answer: The value was “reversed”.

Question: What about the “Brain/Plasma Ratio” value [2] of the same compound?
Answer: Its value is 3.51.

Question: What about the “catalepsy: average latency to move both forepaws” value (male Sprague-Dawley rats [3]) of the same compound?
Answer: The value was “unchanged”.

Question: And the basal locomotor activity (male Sprague-Dawley rats [4])?
Answer: The basal locomotor activity was “significant reduction in basal locomotor activity was only seen at the highest dose”.
